From paper PMC11714206, “Massively Parallel Screening of Toll/Interleukin‐1 Receptor (TIR)‐Derived Peptides Reveals Multiple Toll‐Like Receptors (TLRs)‐Targeting Immunomodulatory Peptides” (Advanced Science, 2024)
Blank lines part the entries; values can stand above or below the sequence they belong to.

Target: T1, MyD88^TIR (Homo sapiens, UniProt Q99836)
T1 construct: MyD88 (residues 148–296); 6xHis; made in house; host or cells: E. coli BL21 (DE3)
Test: T‐Surf phage library (P8 and P3) selection against MyD88^TIR, four rounds, NGS read counts
Format: binding
Details: for Population: 4th round of selection against MyD88 TIR, share of NGS reads; for P3_MyD88 Rank (after) / P3_MyD88 Rank (before): P3 library; for P8_MyD88 Rank (after) / P8_MyD88 Rank (before): P8 library
Description: T‐Surf libraries were screened against the immobilized TIR domains of two major human TLR adaptor proteins, MAL^TIR and MyD88^TIR, allowing cross‐species selection of TIR‐binding motifs with 190 946 TIR‐derived peptides in a single binding assay (Scheme 1). Enriched phage pools from the fourth round of selection were analyzed using NGS after barcoding the peptide‐coding regions of the phage pools.
Phage display screening was performed by coating two wells of a 96‐well plate (Maxisorp, Thermo Fisher Scientific) with 100 µL of 5 µg mL^−1 TIR domains overnight; then, the coated wells were blocked with 200 µL of blocking buffer (0.2% BSA in PBS) and set aside for 1 h at 4 °C with gentle shaking. Next, 100 µL of the phage library was added to the wells and incubated for 1 h at room temperature (RT; 20 – 22 °C) with gentle shaking. The plate was washed four times with PBS containing 0.5% Tween‐20; the bound phages were eluted by adding 100 µL of 100 mM HCl to each well. The elute was neutralized with 10 µL of 1.0 M Tris‐HCl (pH 11.0). E. coli TG1 cells were grown to the log phase (A600 = ≈0.6), and 1 mL of the culture was incubated with 100 µL of the eluted phages for 30 min at 37 °C, with shaking at 200 rpm. Next, 1 µL of M13KO7 helper phages was added, followed by incubation for 45 min at 37 °C, with shaking. Subsequently, the cells were transferred to 25 mL of 2× yeast extract tryptone/carbenicillin/kanamycin medium and incubated overnight at 37 °C with shaking at 200 rpm. The amplified phages were precipitated with 20% PEG‐8000/2.5 M NaCl to be used for the next round of selection.
The naïve T‐Surf libraries in P8 and P3 and the enriched phage pools after four rounds were barcoded for NGS as previously described.^[ [59] ^] Briefly, 5 µL of the phage pool was used as a template for 20 cycles of a 50 µL PCR reaction using […] each of forward and reverse barcoded primers and PrimeSTAR Max DNA Polymerase. The PCR products were purified using Expin Gel SV (GeneAll). The NGS samples were quantified using qPCR, following the qPCR Quantification Protocol Guide (KAPA Library Quantification kits for Illumina Sequencing Platform), and qualified using the TapeStation High Sensitivity D1000 ScreenTape (Agilent Technologies). The indexed libraries were further sequenced by Macrogen (Seoul, Republic of Korea) using the NovaSeq platform (Illumina) with 100 bp paired‐end reads. The reads were demultiplexed by barcodes and filtered for an average Phred quality score of at least 30, followed by trimming the flanking consensus sequences using Cutadapt (version 2.3). Peptide sequence populations were analyzed according to the read counts.

[1] = P8_MyD88 pool: P8 T-Surf phage library
[2] = selection against MyD88, rank by count after grouping
[3] = selection against MyD88, rank by count before grouping
[4] = P8_MyD88: rank by count after grouping
[5] = P8_MyD88: rank by count before grouping
[6] = selection against MyD88, rank after grouping
[7] = selection against MyD88, rank before grouping
[8] = 4R selection against MyD88, rank after grouping
[9] = 4R selection against MyD88, rank before grouping
[10] = P3_MyD88: rank by count after grouping
[11] = P3_MyD88: rank by count before grouping
[12] = P8_MyD88: rank by NGS read count after grouping
[13] = P8_MyD88: rank by NGS read count before grouping
[14] = selection against MyD88 TIR, rank by count after grouping
[15] = selection against MyD88 TIR, rank by count before grouping

T1 sequence (Q99836 148-296): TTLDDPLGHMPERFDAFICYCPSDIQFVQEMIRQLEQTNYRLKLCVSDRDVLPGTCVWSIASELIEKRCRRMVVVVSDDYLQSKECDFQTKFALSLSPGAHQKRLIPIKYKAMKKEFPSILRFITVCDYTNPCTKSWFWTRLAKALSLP

- Population [1]: 0.0262%
Sequence: TSTWALDELWLILEQR

- P3_MyD88 Rank (after) [2]: 679
- P3_MyD88 Rank (before) [3]: 2807
Sequence: HQLSVDIQGYALKAGV

- Rank (after) [4]: 189
- Rank (before) [5]: 243
Sequence: ASSSFALDQLSYFLSL

- Rank (after) [4]: 473
- Rank (before) [5]: 3638
Sequence: IDDDHLTYLVRLIEAL

- P3_MyD88 Rank (after) [6]: 489
- P3_MyD88 Rank (before) [7]: 2475
Sequence: LKVESWRDALTAAANLSGW

- P3_MyD88 Rank (after) [6]: 575
- P3_MyD88 Rank (before) [7]: 3061
Sequence: SELREVVGGAVSQLVM

- P3_MyD88 Rank (after) [8]: 654
- P3_MyD88 Rank (before) [9]: 3000
Sequence: SENMRPARGRWMNWC

- Rank (after) [4]: 139
- Rank (before) [5]: 255
Sequence: YASYDDNDYYWVTHVLLRPM

- P8_MyD88 Rank (after) [6]: 554
- P8_MyD88 Rank (before) [7]: 2981
Sequence: DPQELGWFYERPFSQM

- Rank (after) [10]: 396
- Rank (before) [11]: 3469
Sequence: NQWLNSLTAPANPSDW

- P8_MyD88 Rank (after) [8]: 653
- P8_MyD88 Rank (before) [9]: 3860
Sequence: NYTSSSWALDEQWNIF

- Rank (after) [10]: 444
- Rank (before) [11]: 1694
Sequence: YTALTNSGCPTFCVIA

- P8_MyD88 Rank (after) [6]: 559
- P8_MyD88 Rank (before) [7]: 2612
Sequence: DPLALEWYYERPFSQM

- Population [1]: 0.01%
Sequence: DPQDLEWFYERLVSLI

- Rank (after) [10]: 182
- Rank (before) [11]: 3029
Sequence: SELRVVDDGSVSPLVT

- P8_MyD88 Rank (after) [8]: 592
- P8_MyD88 Rank (before) [9]: 3655
Sequence: MFGGDPLHDFLDLISL

- Rank (after) [4]: 105
- Rank (before) [5]: 108
- Population [1]: 0.02%
Sequence: FFSGFRELEDFISKLW

- P8_MyD88 Rank (after) [8]: 614
- P8_MyD88 Rank (before) [9]: 1562
Sequence: WAQDALLKILYAKETM

- Rank (after) [12]: 882
- Rank (before) [13]: 2782
Sequence: DPQDLDWFYERLASGI

- Population (P3_MyD88 pool: P3 T-Surf phage library): 0.00349%
Sequence: LKVESWRQAQEKAGKL

- P8_MyD88 Rank (after) [6]: 529
- P8_MyD88 Rank (before) [7]: 1611
Sequence: WDFASNMEQFWDRLIRMIE

- Rank (after) [10]: 187
- Rank (before) [11]: 2402
Sequence: LNVESWRQALERAGKL

- P8_MyD88 Rank (after) [14]: 210
- P8_MyD88 Rank (before) [15]: 492
Sequence: LAIIGLIGSILWALK

- P8_MyD88 Rank (after) [14]: 227
- P8_MyD88 Rank (before) [15]: 419
Sequence: NYATSRWALDELVRIF

- P8_MyD88 Rank (after) [6]: 520
- P8_MyD88 Rank (before) [7]: 1471
Sequence: WALDELLKFCMRMKP

- Rank (after) [4]: 135
- Rank (before) [5]: 720
Sequence: DPQDLDWFYERLASLL

- P3_MyD88 Rank (after) [2]: 695
- P3_MyD88 Rank (before) [3]: 2125
Sequence: EWGDPYFWSKLRYAM

- P8_MyD88 Rank (after) [2]: 737
- P8_MyD88 Rank (before) [3]: 3124
Sequence: DSLIWDRLLYSIKVTE

- Rank (after) [10]: 156
- Rank (before) [11]: 3107
Sequence: SRFREGLWPLLELSKK

- Rank (after) [4]: 419
- Rank (before) [5]: 1421
Sequence: WALDEVLQILRARELF

- Rank (after) [10]: 456
- Rank (before) [11]: 1515
Sequence: YAFTGHLHRYLVQPGESVC

- P8_MyD88 Rank (after) [2]: 701
- P8_MyD88 Rank (before) [3]: 1502
Sequence: WALDELRKNLYAIETM

- P3_MyD88 Rank (after) [6]: 504
- P3_MyD88 Rank (before) [7]: 1638
Sequence: YTALSYRGFHDFRGNE

- P3_MyD88 Rank (after) [2]: 728
- P3_MyD88 Rank (before) [3]: 1459
Sequence: YYLDPSHLRKQSGESERL

- Rank (after) [4]: 180
- Rank (before) [5]: 1108
Sequence: DPQDLEWLYERLVSLF

- Rank (after) [4]: 178
- Rank (before) [5]: 227
Sequence: IFISHLYNSLTNAGIY

- P3_MyD88 Rank (after) [6]: 542
- P3_MyD88 Rank (before) [7]: 3781
Sequence: KNLFNLLGSKDIRALM

- Rank (after) [4]: 436
- Rank (before) [5]: 2831
Sequence: DPQDLDWIYERLVSRF

- P3_MyD88 Rank (after) [8]: 614
- P3_MyD88 Rank (before) [9]: 2599
Sequence: RISAFHQQLVMALNTQ

- Rank (after) [12]: 951
- Rank (before) [13]: 1858
Sequence: YASSSWYLDELCIFC

- P8_MyD88 Rank (after) [6]: 544
- P8_MyD88 Rank (before) [7]: 1423
Sequence: WALDEVLKIQDDNETM
